Columns and labels:
Format in all cases: binding
[1] = biological target: T1, BAG1 (Homo sapiens, UniProt Q99933); test: FP of probes with BAG1 in the absence of HSP72; conditions: 10 nM probe, 1 µM BAG1
T1 construct: purchased Enzo Life Sciences
T1 sequence (Q99933 1-274 isoform Q99933-3): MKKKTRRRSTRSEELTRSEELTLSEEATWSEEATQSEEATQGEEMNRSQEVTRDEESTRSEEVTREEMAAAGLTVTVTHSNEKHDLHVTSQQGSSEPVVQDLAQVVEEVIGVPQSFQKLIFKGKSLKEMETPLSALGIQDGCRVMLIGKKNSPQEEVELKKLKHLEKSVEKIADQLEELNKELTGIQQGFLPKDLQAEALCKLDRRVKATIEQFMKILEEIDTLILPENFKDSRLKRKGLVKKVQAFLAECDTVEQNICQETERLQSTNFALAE
Experimental: To assess what effect the secondary HSP72/BAG1 complex had on the apparent affinity of the non-nucleotide bisaryl-ATTO-488 FP-probe 11, we carried out a similar BAG1 study. […] To confirm that the binding of BAG1 to HSP72 was not mutually exclusive, we screened the nucleotides ADP and ATP in a competition assay with bisaryl-ATTO-488 11 and HSP72 at a 50% bound fraction, with and without a saturating concentration of BAG1 (700 nM) (Fig. S7, ESI ^†).
Fig. S4. Competitive displacement curve for bisarryl-ATTO-448 and HSP72 with compound 2. IC50 determination was performed using non-linear least squares curve fitting (GraphPad Prism 6, log(inhibitor) vs. response—variable slope (four parameters)), all data points were tested in triplicate and are represented as the arithmetic mean ± SEM. pKD=-log KD (M). pKD values are quoted as the geometric mean±SEM of n independent repeats.
Fig. S5. Bisaryl-ATTO-488 and ATP-ATTO-488 binding to truncated HSP72 and HSC70. Representative binding isotherms for bisaryl-ATTO-488 (blue) and ATP-ATTO-488 (red) binding to TR-HSP72 (aa 3-382) (•) and TR-HSC70 (aa 4-381) (x). KD determination was performed using non-linear regression analysis (one site–specific binding model), all data points were tested in triplicate and are represented as the arithmetic mean ± SEM. pKD=-log KD (M). pKD values are quoted as the geometric mean±SEM of n independent repeats.
Fig. S6. […]

[2] = biological target: T2, TR-HSC70 (aa 4-381) (Homo sapiens, UniProt P11142); test: Fluorescence polarisation probe KD determination with truncated HSC70
T2 construct: HSC70-NBD (residues 4 to 381); made in house
Experimental: (§1) To determine the binding affinity of bisaryl FP-probe 11 for HSP72, increasing concentrations of the protein were titrated against a fixed concentration (10 nM) of the FP-probe. […] We speculated that this decrease in apparent KD was due to the slow hydrolysis of the ATP-probe to ADP-ATTO-488 + Pi. Although HSP72 has low intrinsic ATPase activity,[8] the high enzyme concentration could catalyse hydrolysis over the time-frame of the assay, with the initial KD values reflective of the known modest affinity of ATP for HSP70, whilst the final KD value was consistent with the higher affinity ADP ligand.[14] […]
(§2) TRIS Tris(hydroxymethyl)aminomethane
(§3) General Information: Unless otherwise stated the aqueous assay buffer contained 50 mM TRIS base pH 7.4, 150 mM NaCl, 6 mM MgCl2, 1 mM DTT, 0.1% (wt/wt) CHAPS. The assay was conducted using 384 Plus F ProxiPlates (PerkinElmer) with a final assay volume of 10 μL. Plates were centrifuged at 1000 rpm for 1 minute prior to incubation and read using an 2103 Envision Multilable Plate Reader. Excitation and emission wavelengths used for green probes were 480 nm and 535 nm, respectively.
(§4) Fluorescence polarisation was measured in units of millipolarization (mP). […] Data were plotted and analysed using GraphPad Prism 6, graphical data represents the mean ± standard error of the mean for a single representative experiment. […]

[3] = biological target: T3, TR-HSP72 (aa 3-382) (Homo sapiens, UniProt P0DMV8); test: Fluorescence polarisation probe KD determination with truncated HSP72
T3 construct: Truncated HSP72-NBD (residues 3 to 382); made in house
Experimental: as §1, §2, §3, §4

T2 sequence (P11142 4-381): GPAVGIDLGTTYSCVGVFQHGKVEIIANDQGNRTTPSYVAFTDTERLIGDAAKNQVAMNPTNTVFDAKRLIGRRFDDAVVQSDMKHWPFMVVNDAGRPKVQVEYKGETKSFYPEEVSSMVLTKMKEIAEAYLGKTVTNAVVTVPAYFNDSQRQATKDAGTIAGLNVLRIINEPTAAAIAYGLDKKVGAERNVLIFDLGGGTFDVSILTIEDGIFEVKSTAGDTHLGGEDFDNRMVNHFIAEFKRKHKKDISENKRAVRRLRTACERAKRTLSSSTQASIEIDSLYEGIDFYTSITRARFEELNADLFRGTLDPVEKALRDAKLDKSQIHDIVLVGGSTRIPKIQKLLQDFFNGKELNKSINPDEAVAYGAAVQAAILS
T3 sequence (P0DMV8 3-382): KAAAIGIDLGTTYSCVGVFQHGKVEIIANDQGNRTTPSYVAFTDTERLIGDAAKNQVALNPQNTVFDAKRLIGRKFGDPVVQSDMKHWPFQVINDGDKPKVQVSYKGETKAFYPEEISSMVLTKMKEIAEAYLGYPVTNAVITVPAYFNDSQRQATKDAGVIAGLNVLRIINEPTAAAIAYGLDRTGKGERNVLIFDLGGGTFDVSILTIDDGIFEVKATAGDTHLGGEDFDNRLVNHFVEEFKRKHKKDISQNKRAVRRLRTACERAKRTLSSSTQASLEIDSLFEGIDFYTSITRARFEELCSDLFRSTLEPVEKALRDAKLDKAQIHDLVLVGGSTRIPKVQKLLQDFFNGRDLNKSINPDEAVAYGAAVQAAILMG

SMILES: CN(CCCC(=O)NCCCCCCNc1ncnc2c1nc(NCc1ccc3ncccc3c1)n2[C@@H]1O[C@H](COCc2ccc(C(F)(F)F)cc2)[C@@H](O)[C@H]1O)C(=O)c1ccccc1-c1c2ccc(=N)c(S(=O)(=O)O)c-2oc2c(S(=O)(=O)O)c(N)ccc12 [compound 11]
- interaction with BAG1 in the absence of HSP72 [1]: No interaction
- interaction with BAG1 in the absence of HSP72 ([1]; listed as bisaryl-ATTO-488): does not interact
- Kd ([2]; TR-HSC70): 117 nM
- pKD ([2]; TR-HSC70, n = 2): 6.93
- Kd [3]: 50 nM
- pKD [3]: 7.32
